Measured values published in patent US7494993B2, “Amide derivatives of 7-amino-3-phenyl-dihydropyrimido[4,5-d]pyrimidinones, their manufacture and use as pharmaceutical agents” (Hoffmann-La Roche Inc., priority 2004, dated 2009).

Legend:
Lck (p56^kk, active) = biological target: T1, Lck (p56^kk, active) (Homo sapiens, UniProt P06239); assay: SRC-Inhibitor-Assay, time-resolved fluorescence kinase assay (Lck); type: biochemical; settings: ATP 5 μM; enzyme pre-incubated with inhibitor 15 min at 15° C.
T1 construct: purchased UBI, Upstate Biotech, Inc
T1 sequence (P06239 whole entry, species assumed): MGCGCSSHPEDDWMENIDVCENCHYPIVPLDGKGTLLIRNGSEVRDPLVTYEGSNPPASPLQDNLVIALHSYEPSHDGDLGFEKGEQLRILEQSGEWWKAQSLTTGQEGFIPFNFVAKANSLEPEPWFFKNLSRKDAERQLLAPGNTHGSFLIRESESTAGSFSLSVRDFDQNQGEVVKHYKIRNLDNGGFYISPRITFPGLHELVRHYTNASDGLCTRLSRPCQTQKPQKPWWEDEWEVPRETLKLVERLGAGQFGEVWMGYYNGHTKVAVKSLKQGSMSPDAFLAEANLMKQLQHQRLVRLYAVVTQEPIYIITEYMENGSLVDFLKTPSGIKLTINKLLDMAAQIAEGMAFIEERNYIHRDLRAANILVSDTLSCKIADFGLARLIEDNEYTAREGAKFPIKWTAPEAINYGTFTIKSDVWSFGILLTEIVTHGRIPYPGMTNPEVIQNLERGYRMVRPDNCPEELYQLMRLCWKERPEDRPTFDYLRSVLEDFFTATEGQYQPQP
Procedure: (§1) The activity of the compounds according to this invention as inhibitors for the src-family tyrosine kinases was shown by using the following assay. • SRC-Inhibitor-Assay Parameters: • Reaction mixture: • ATP 5 μM • Peptide (Ro+Ja133-Ro): 10 μM • Ja133-Ro 196 nM • Ro 9.8 μM • PT66 230 ng/ml • Assay buffer: 4 mM MgCl2 • 2 mM TCEP • 50 mM HEPES • 0.1% Tween 20 • pH 7.3 • Enzyme: 2.5 U/ml • Inhibitor: max. 25 μM • min. 0.42 nM
(§2) Material: • Eu-labelled phosphotyrosine antibody: for Lck Cisbio Mab PT66-K, • for Src EG&G Wallac PT66 Eu-W1024 (all commercially available). • Peptides: Ro: NH2-A-E-E-E-I-Y-G-E-F-E-A-K-K-K-K-CONH2, and • Ja133-Ro: Ja133-G-Aminocaprylic acid-A-E-E-E-I-Y-G-E-F-E-A-K-K-K-K-CONH2, wherein Ja133 is LightCycler-Red 640-N-hydroxy succinimide ester; • whereby both peptides were synthesized by an optimized solid phase peptide synthesis protocol (Merrifield, Fed. Proc. Fed. Amer. Soc. Exp. Biol. 21 (1962) 412) on a Zinsser SMP350 peptide synthesizer. Shortly, the peptide was assembled on 160 mg (22.8 μmol scale) of a Rink-Linker modified polystyrene solid phase by repeatedly conjugating an twenty fold excess of amino acids each protected by temporary piperidine labile Fmoc- and permanent acid labile tert-Bu-, BOC- and O-tert-Bu-groups depending on the side chain function. The substrate sequence AEEEIYGEFEAKKKK was N-terminal additionally mounted with the spacer amino acids Aminocaprylic acid and Glycin. After cleavage of the N-terminal temporary protecting group the still attached and protected peptide was labeled with a 1.5 fold amount of LightCycler-Red 640-N-hydroxy succinimide ester (purchased from Roche Diagnostics GmbH) and triethylamine. After 3 hrs. the resin was washed with Dimethylformamide and Isopropanol until the eluates of the blue resin got colourless. […] The substrate was finally isolated by a preparative reverse phase HPLC purification.
(§3) The purification yielded 12.2 mg RP-HPLC single peak pure blue material (lyophilisate). The identity was proven by MALDI mass spectroscopy [2720.0]. • Enzymes: Upstate Lck (p56^kk, active), Upstate Src (p60^c-src, partially purified) were purchased from UBI, Upstate Biotech, Inc.
(§4) Time-resolved Fluorescence Assay: Reader: Perkin Elmer, Wallac Viktor 1420-040 multilabel counter; Liquid handling system: Beckman Coulter, Biomek 2000.
(§5) ATP, Tween™ 20, 4-(2-hydroxyethyl)-1-piperazineethanesulfonic acid (HEPES) were purchased from Roche Molecular Biochemicals, MgCl2 and MnCl2 were purchased from Merck Eurolab, Tris(2-carboxyethyl)phosphine hydrochloride (TCEP) was purchased from Pierce, 384 Well low volume fluorescence plates was purchased from Falcon.
(§6) At first the enzyme is pre-incubated for 15 min. at 15° C. in aqueous solution with corresponding amounts of inhibitors according to this invention. Then the phosphorylation reaction is started by adding a reaction mixture, containing ATP, Peptide and PT66, and subsequent shaking. The proceeding of this reaction is immediately monitored using time resolved fluorescence spectroscopy in a suitable well plate reader.
(§7) The IC50-values can be obtained from the reaction rates by using a non-linear curve fit (XLfit software (ID Business Solution Ltd., Guilford, Surrey, UK))

[1] = biological target: T2, Src (p60^c-src, partially purified) (Homo sapiens, UniProt P12931); assay: SRC-Inhibitor-Assay, time-resolved fluorescence kinase assay (Src); type: biochemical; settings: ATP 5 μM; enzyme pre-incubated with inhibitor 15 min at 15° C.
T2 construct: purchased UBI, Upstate Biotech, Inc
T2 sequence (P12931 whole entry, species assumed): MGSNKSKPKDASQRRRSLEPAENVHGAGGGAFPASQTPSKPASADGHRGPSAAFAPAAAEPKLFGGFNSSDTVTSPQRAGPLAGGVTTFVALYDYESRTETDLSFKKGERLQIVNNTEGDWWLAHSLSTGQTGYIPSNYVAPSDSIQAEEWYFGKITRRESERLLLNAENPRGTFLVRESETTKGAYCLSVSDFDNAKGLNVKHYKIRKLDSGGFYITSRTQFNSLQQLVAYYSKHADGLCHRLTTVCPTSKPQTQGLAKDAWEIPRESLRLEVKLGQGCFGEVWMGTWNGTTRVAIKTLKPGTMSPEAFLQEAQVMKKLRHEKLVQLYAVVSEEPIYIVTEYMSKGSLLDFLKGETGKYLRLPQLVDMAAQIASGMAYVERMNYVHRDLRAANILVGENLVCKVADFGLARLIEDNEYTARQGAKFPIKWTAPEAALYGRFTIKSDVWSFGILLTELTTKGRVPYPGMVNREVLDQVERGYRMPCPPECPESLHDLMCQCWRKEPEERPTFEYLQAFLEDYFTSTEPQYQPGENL
Procedure: as §1, §2, §3, §4, §5, §6, §7

Row | Compound | IC50 (Lck (p56^kk, active)) [nM] | IC50 [1] [nM]
1 | CN1C(=O)N(c2cc(NC(=O)c3ccc(-c4ccccn4)cc3)ccc2Cl)Cc2cnc(N)nc21 [Example 2-22, N-[3-(7-Amino-1-methyl-2-oxo-1,4-dihydro-2H-pyrimido[4,5-d]pyrimidin-3-yl)-4-chloro-phenyl]-4-pyridin-2-yl-benzamide] | 50 to 150 | 50 to 150
2 | CN1C(=O)N(c2cc(NC(=O)c3ccc(-c4ccc[nH]4)cc3)ccc2Cl)Cc2cnc(N)nc21 [Example 2-24, N-[3-(7-Amino-1-methyl-2-oxo-1,4-dihydro-2H-pyrimido[4,5-d]pyrimidin-3-yl)-4-chloro-phenyl]-4-(1H-pyrrol-2-yl)-benzamide] | 50 to 150 | 50 to 150
3 | CN1C(=O)N(c2cc(NC(=O)C=Cc3ccccc3)ccc2Cl)Cc2cnc(N)nc21 [Example 2-14, N-[3-(7-Amino-1-methyl-2-oxo-1,4-dihydro-2H-pyrimido[4,5-d]pyrimidin-3-yl)-4-chloro-phenyl]-3-phenyl-acrylamide] | 38.5 | 41
4 | CN1C(=O)N(c2cc(NC(=O)c3ccc(N4CCOCC4)cc3)ccc2Cl)Cc2cnc(N)nc21 [Example 2-7, N-[3-(7-Amino-1-methyl-2-oxo-1,4-dihydro-2H-pyrimido[4,5-d]pyrimidin-3-yl)-4-chloro-phenyl]-4-morpholin-4-yl-benzamide] | 168 | 73.5
5 | CN1C(=O)N(c2cc(NC(=O)c3ccc(-c4ccccc4)cc3)ccc2Cl)Cc2cnc(N)nc21 [Example 1, Biphenyl-4-carboxylic acid[3-(7-amino-1-methyl-2-oxo-1,4-dihydro-2H-pyrimido[4,5-d]pyrimidin-3-yl)-4-chloro-phenyl]-amide] | 50 to 150 | 50 to 150
6 | CN1C(=O)N(c2cc(NC(=O)c3cccc(-c4ccccc4)c3)ccc2Cl)Cc2cnc(N)nc21 [Example 2-3, Biphenyl-3-carboxylic acid [3-(7-amino-1-methyl-2-oxo-1,4-dihydro-2H-pyrimido[4,5-d]pyrimidin-3-yl)-4-chloro-phenyl]-amide] | 50 to 150 | 50 to 150
7 | CN1C(=O)N(c2cc(NC(=O)c3cccc4ccccc34)ccc2Cl)Cc2cnc(N)nc21 [Example 2-15, Naphthalene-1-carboxylic acid [3-(7-amino-1-methyl-2-oxo-1,4-dihydro-2H-pyrimido[4,5-d]pyrimidin-3-yl)-4-chloro-phenyl]-amide] | 50 to 150 | 50 to 150
